Experimental data published in patent US8207204B2, “Triazole derivatives as SCD inhibitors” (GlaxoSmithKline LLC, priority 2007, dated 2012).

SMILES	melting point [°C]
Cc1nc(NC(=O)c2cn(Cc3ccc(Cl)c(Cl)c3)nn2)sc1C(N)=O [Example 37, N-[5-(Aminocarbonyl)-4-methyl-1,3-thiazol-2-yl]-1-[(3,4-dichlorophenyl)methyl]-1H-1,2,3-triazole-4-carboxamide]	283
Cc1c(C(=O)Nc2nncs2)nnn1Cc1ccc(Cl)c(Cl)c1 [Example 38, 1-[(3,4-Dichlorophenyl)methyl]-5-methyl-N-1,3,4-thiadiazol-2-yl-1H-1,2,3-triazole-4-carboxamide]	215.6
Cc1c(C(=O)Nc2ncc(CO)s2)nnn1Cc1ccc(Cl)c(Cl)c1 [Example 39, 1-[(3,4-Dichlorophenyl)methyl]-N-[5-(hydroxymethyl)-1,3-thiazol-2-yl]-5-methyl-1H-1,2,3-triazole-4-carboxamide]	170.5
COCc1c(C(=O)Nc2ncc(CO)s2)nnn1Cc1ccc(Cl)c(Cl)c1 [Example 40, 1-[(3,4-Dichlorophenyl)methyl]-N-[5-(hydroxymethyl)-1,3-thiazol-2-yl]-5-[(methyloxy)methyl]-1H-1,2,3-triazole-4-carboxamide]	205
Cc1nc(NC(=O)c2nnn(Cc3ccc(Cl)c(Cl)c3)c2C)sc1CO [Example 41, 1-[(3,4-Dichlorophenyl)methyl]-N-[5-(hydroxymethyl)-4-methyl-1,3-thiazol-2-yl]-5-methyl-1H-1,2,3-triazole-4-carboxamide]	161.8
Cc1c(C(=O)Nc2nnc(CO)s2)nnn1Cc1ccc(Cl)c(Cl)c1 [Example 42, 1-[(3,4-Dichlorophenyl)methyl]-N-[5-(hydroxymethyl)-1,3,4-thiadiazol-2-yl]-5-methyl-1H-1,2,3-triazole-4-carboxamide]	153.6
Cc1c(C(=O)Nc2cc(CO)ccn2)nnn1Cc1ccc(Cl)c(Cl)c1 [Example 44, 1-[(3,4-Dichlorophenyl)methyl]-N-[4-(hydroxymethyl)-2-pyridinyl]-5-methyl-1H-1,2,3-triazole-4-carboxamide]	191
COc1ccc2nc(C(=O)Nc3nnn(Cc4ccc(Cl)c(Cl)c4)c3C)sc2c1 [Example 45, N-{1-[(3,4-Dichlorophenyl)methyl]-5-methyl-1H-1,2,3-triazol-4-yl}-6-(methyloxy)-1,3-benzothiazole-2-carboxamide]	176
